Laboratory results from ChEMBL document CHEMBL1126936, “Synthesis and antitumor activity of 10-propargyl-10-deazaaminopterin” (J Med Chem, 1993).

Key:
[1] = organism: Mus musculus; test: (§1) Inhibition of growth in L1210 murine leukemia cells in culture expressed as IC50 (nM); type: functional, cell-based
[2] = target: T1, Dihydrofolate reductase (Mus musculus, UniProt P00375); test: Inhibition of Dihydrofolate reductase (DHFR) enzyme derived from L1210 cells expressed as Ki (pM); type: cell-based
T1 sequence (P00375 whole entry): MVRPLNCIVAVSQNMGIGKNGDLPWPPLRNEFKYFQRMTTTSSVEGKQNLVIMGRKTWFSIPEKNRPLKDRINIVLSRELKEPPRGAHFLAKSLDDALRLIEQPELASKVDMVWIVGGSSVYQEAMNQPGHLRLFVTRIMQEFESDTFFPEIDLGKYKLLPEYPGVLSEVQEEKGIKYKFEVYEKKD

[3] = organism: Mus musculus; test: (§2) Transport influx which is determined by competitive binding for the transport protein; expressed as Ki (uM); type: functional, organism-based
[4] = system: Mus musculus; test: Average E0771 solid murine mammary tumor volume in BDF1 female mice (n=5) at 24 mg/kg at 14 day post treatment point; Expressed as % T/C; type: functional
[5] = system: Mus musculus; test: Average E0771 solid murine mammary tumor volume in BDF1 female mice (n=5) at 24 mg/kg at 21 day post treatment point; type: functional
[6] = system: Mus musculus; test: Average E0771 solid murine mammary tumor volume in BDF1 female mice (n=5) at 24 mg/kg at 14 day post treatment point; type: functional
[7] = system: Mus musculus; test: Average E0771 solid murine mammary tumor volume in BDF1 female mice (n=5) at 24 mg/kg at 10 day post treatment point; type: functional
[8] = system: Mus musculus; test: Average E0771 solid murine mammary tumor volume in BDF1 female mice (n=5) at 36 mg/kg at 21 day post treatment point; Expressed as % T/C; type: functional
[9] = system: Mus musculus; test: Average E0771 solid murine mammary tumor volume in BDF1 female mice (n=3) at 36 mg/kg at 21 day post treatment point
[10] = system: Mus musculus; test: Average E0771 solid murine mammary tumor volume in BDF1 female mice (n=5) at 36 mg/kg at 10 day post treatment point; type: functional
[11] = system: Mus musculus; test: Average E0771 solid murine mammary tumor volume in BDF1 female mice (n=3) at 36 mg/kg at 14 day post treatment point
[12] = system: Mus musculus; test: Average E0771 solid murine mammary tumor volume in BDF1 female mice (n=5) at 36 mg/kg at 10 day post treatment point; Expressed as % T/C; type: functional
[13] = system: Mus musculus; test: Average E0771 solid murine mammary tumor volume in BDF1 female mice (n=5) at 24 mg/kg at 10 day post treatment point; Expressed as % T/C; type: functional
[14] = system: Mus musculus; test: Average E0771 solid murine mammary tumor volume in BDF1 female mice (n=5) at 36 mg/kg at 14 day post treatment point; Expressed as % T/C; type: functional
[15] = system: Mus musculus; test: Average E0771 solid murine mammary tumor volume in BDF1 female mice (n=5) at 24 mg/kg at 21 day post treatment point; Expressed as % T/C; type: functional
[16] = system: L1210; test: as §1; type: functional, cell-based; settings: Mus musculus
[17] = target: L1210; test: as §2; type: functional, cell-based, Mus musculus
[18] = system: Mus musculus; test: Average E0771 solid murine mammary tumor volume in BDF1 female mice (n=5) at 3 mg/kg at 14 day post treatment point; Expressed as % T/C; type: functional
[19] = system: Mus musculus; test: Average E0771 solid murine mammary tumor volume in BDF1 female mice (n=5) at 6 mg/kg at 14 day post treatment point; Expressed as % T/C; type: functional
[20] = system: Mus musculus; test: Average E0771 solid murine mammary tumor volume in BDF1 female mice (n=5) at 9 mg/kg at 14 day post treatment point; type: functional
[21] = system: Mus musculus; test: Average E0771 solid murine mammary tumor volume in BDF1 female mice (n=5) at 3 mg/kg at 21 day post treatment point; type: functional
[22] = system: Mus musculus; test: Average E0771 solid murine mammary tumor volume in BDF1 female mice (n=5) at 9 mg/kg at 10 day post treatment point; type: functional
[23] = system: Mus musculus; test: Average E0771 solid murine mammary tumor volume in BDF1 female mice (n=5) at 9 mg/kg at 10 day post treatment point; Expressed as % T/C; type: functional
[24] = system: Mus musculus; test: Average E0771 solid murine mammary tumor volume in BDF1 female mice (n=5) at 9 mg/kg at 21 day post treatment point; Expressed as % T/C; type: functional
[25] = system: Mus musculus; test: Average E0771 solid murine mammary tumor volume in BDF1 female mice (n=5) at 3 mg/kg at 21 day post treatment point; Expressed as % T/C; type: functional
[26] = system: Mus musculus; test: Average E0771 solid murine mammary tumor volume in BDF1 female mice (n=5) at 6 mg/kg at 14 day post treatment point; type: functional
[27] = system: Mus musculus; test: Average E0771 solid murine mammary tumor volume in BDF1 female mice (n=5) at 3 mg/kg at 10 day post treatment point; type: functional
[28] = system: Mus musculus; test: Average E0771 solid murine mammary tumor volume in BDF1 female mice (n=5) at 6 mg/kg at 10 day post treatment point; type: functional
[29] = system: Mus musculus; test: Average E0771 solid murine mammary tumor volume in BDF1 female mice (n=5) at 9 mg/kg at 21 day post treatment point; type: functional
[30] = system: Mus musculus; test: Average E0771 solid murine mammary tumor volume in BDF1 female mice (n=5) at 3 mg/kg at 14 day post treatment point; type: functional
[31] = system: Mus musculus; test: Average E0771 solid murine mammary tumor volume in BDF1 female mice (n=5) at 6 mg/kg at 21 day post treatment point; type: functional
[32] = system: Mus musculus; test: Average E0771 solid murine mammary tumor volume in BDF1 female mice (n=5) at 6 mg/kg at 10 day post treatment point; Expressed as % T/C; type: functional
[33] = system: Mus musculus; test: Average E0771 solid murine mammary tumor volume in BDF1 female mice (n=5) at 9 mg/kg at 14 day post treatment point; Expressed as % T/C; type: functional
[34] = system: Mus musculus; test: Average E0771 solid murine mammary tumor volume in BDF1 female mice (n=5) at 6 mg/kg at 21 day post treatment point; Expressed as % T/C; type: functional
[35] = system: Mus musculus; test: Average E0771 solid murine mammary tumor volume in BDF1 female mice (n=5) at 3 mg/kg at 10 day post treatment point; Expressed as % T/C; type: functional

CC(Cc1cnc2nc(N)nc(N)c2n1)c1ccc(C(=O)NC(CCC(=O)O)C(=O)O)cc1 (configuration not stated)
IC50 [1]: 1.34 nM
Ki [2]: 0.0041 nM
Ki [3]: 950 nM

Nc1nc(N)c2nc(CCc3ccc(C(=O)N[C@@H](CCC(=O)O)C(=O)O)cc3)cnc2n1
IC50 [1]: 1.8 nM
Ki [2]: 0.0036 nM
Ki [3]: 900 nM

C#CCC(Cc1cnc2nc(N)nc(N)c2n1)c1ccc(C(=O)NC(CCC(=O)O)C(=O)O)cc1 (configuration not stated)
IC50 [1]: 2 nM
T/C [4]: 2%
Average tumor volume [5]: 204 mm**3
Ki [2]: 0.0182 nM
Average tumor volume [6]: 19 mm**3
Average tumor volume [7]: 62 mm**3
T/C [8]: 1%
Average tumor volume [9]: 21 mm**3
Average tumor volume [10]: 48 mm**3
Average tumor volume [11]: 6 mm**3
T/C [12]: 31%
T/C [13]: 47%
T/C [14]: 1%
Ki [3]: 450 nM
T/C [15]: 10%

CCCCCC(Cc1cnc2nc(N)nc(N)c2n1)c1ccc(C(=O)NC(CCC(=O)O)C(=O)O)cc1 (configuration not stated)
IC50 [16]: 251 nM
Ki [2]: > 1 nM
Ki [17]: 1000 nM

CCCC(Cc1cnc2nc(N)nc(N)c2n1)c1ccc(C(=O)NC(CCC(=O)O)C(=O)O)cc1 (configuration not stated)
IC50 [16]: 2.03 nM
Ki [2]: 0.0092 nM
Ki [17]: 1100 nM

CN(Cc1cnc2nc(N)nc(N)c2n1)c1ccc(C(=O)N[C@@H](CCC(=O)O)C(=O)O)cc1 [METHOTREXATE]
T/C [18]: 15%
IC50 [16]: 9.5 nM
T/C [19]: 2%
Average tumor volume [20]: 19 mm**3
Average tumor volume [21]: 1260 mm**3
Average tumor volume [22]: 4 mm**3
T/C [23]: 3%
T/C [24]: 15%
T/C [25]: 61%
Average tumor volume [26]: 19 mm**3
Average tumor volume [27]: 113 mm**3
Average tumor volume [28]: 34 mm**3
Average tumor volume [29]: 310 mm**3
Average tumor volume [30]: 187 mm**3
Average tumor volume [31]: 382 mm**3
T/C [32]: 26%
T/C [33]: 2%
Ki [3]: 4200 nM
T/C [34]: 18%
T/C [35]: 86%
